Results: patent US6605642B2, “Inhibitors of formation of advanced glycation endproducts (AGES)” (City of Hope, priority 1999, dated 2003)

Assays:
Format in all cases: biochemical
G.K. peptide = assay: N-Acetyl-Glycyl-Lysine Methyl Ester (G.K. Peptide)-Ribose assay; settings: 24 hours at 37° C., fluorescence 330/415 nm; for Percent Inhibition in the G.K.-Ribose Assay: 1 millimole/L inhibitor
Procedure: Evaluation of the late glycation products (AGEs), and AGE-inhibition by the new inhibitor compounds was tested by incubation of G.K. peptide in ribose in the presence or the absence of the agent, followed by determination of chromophores generated in the course of glycation and AGE formation through determination of their specific fluorescence. The Nagaraj et al. (1996) method used to evaluate the ability of the compounds of the present invention to inhibit the crosslinking of N-acetylglycyl-lysine methyl ester in the presence of ribose was as follows: Stock Solutions: 0.5 M sodium phosphate buffer pH 7.4 containing NaN3 0.2 g/L GK peptide (Sigma) 80 mg/mL in 0.5 M sodium phosphate buffer pH 7.4 Ribose 800 mM (120 mg/mL) in 0.5 M phosphate buffer Triplicate samples of equal volumes (0.1 mL) of the 3 stock solutions were mixed together, filtered through a 0.2 micron filter (Corning) and incubated under aseptic conditions for 24 hours at 37° C. The inhibitor compounds were added to a final concentration of 1 millimole/L. At the end of the incubation period, samples were analyzed for their specific fluorescence (excitation, 330 nm; emission, 415 nm). The % inhibition by different concentrations of inhibitor was calculated as described above. Aminoguanidine was used at 50 mM as a positive control. […] The results of this assay indicate that all ten compounds investigated here have strong inhibitory effects and block specific fluorescence of proteins AGE in these separate determinations.

BSA = molecular target: T1, BSA (Bos taurus, UniProt P02769); assay: BSA-Glucose assay, glucose-mediated development of fluorescence of BSA; settings: 7 days at 37° C., fluorescence 330/410 nm; for Percent Inhibition in the BSA-Glucose Assay: 1 millimole/L inhibitor
T1 construct: BSA (fraction V, essentially fatty acid free, low endotoxin) from Sigma; purchased Sigma
T1 sequence (P02769 25-607): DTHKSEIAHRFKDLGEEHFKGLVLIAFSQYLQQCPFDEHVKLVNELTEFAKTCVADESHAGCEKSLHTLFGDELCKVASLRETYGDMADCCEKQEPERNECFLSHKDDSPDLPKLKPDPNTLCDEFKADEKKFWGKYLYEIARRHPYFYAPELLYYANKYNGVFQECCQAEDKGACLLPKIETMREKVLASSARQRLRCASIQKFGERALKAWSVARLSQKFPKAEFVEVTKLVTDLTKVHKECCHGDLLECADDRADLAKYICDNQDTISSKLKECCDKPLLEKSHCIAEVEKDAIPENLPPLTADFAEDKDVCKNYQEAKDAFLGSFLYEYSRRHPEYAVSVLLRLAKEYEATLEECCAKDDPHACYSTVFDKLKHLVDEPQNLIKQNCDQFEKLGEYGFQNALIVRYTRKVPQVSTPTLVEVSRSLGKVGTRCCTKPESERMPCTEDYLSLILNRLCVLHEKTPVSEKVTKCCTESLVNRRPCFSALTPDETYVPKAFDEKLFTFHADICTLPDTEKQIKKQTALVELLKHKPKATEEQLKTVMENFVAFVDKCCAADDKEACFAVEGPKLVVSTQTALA
Procedure: This test is used to evaluate the ability of the inhibitors to inhibit glucose-mediated development of fluorescence of BSA (Ikeda et al., 1996). Triplicate samples of BSA (fraction V, essentially fatty acid free, low endotoxin) from Sigma 50 mg/mL and 800 mM glucose (144 mg/mL) in […] phosphate buffer pH 7.4 containing NaN3 0.2 g/L was incubated under aseptic conditions at 37° C. for 7 days in the presence or absence of various concentrations of the compounds. After 7 days of incubation each sample was examined for the development of specific fluorescence (excitation, 330 nm; emission, 410 nm). The % inhibition of AGE formation in the test sample versus control was calculated for each inhibitor compound. Aminoguanidine (50 mM) was used as a positive control.
This assay method is mostly for the inhibitors of late glycation and AGE formation (post-Amadori). The results obtained by this assay show all ten compounds investigated here have strong inhibitory effects on post-Amadori glycation, AGE formation and AGE crosslinking.

[1] = molecular target: T2, hemoglobin (HbA1C formation) (Homo sapiens, UniProt P68871+P69905); assay: Hemoglobin-δ-Gluconolactone (δ-Glu) assay, early stage glycation; settings: 1 millimole/L inhibitor, δ-Glu treated whole blood, 16 hours at 37° C.
T2 construct: δ-Glu, an oxidized analogue of glucose, can react rapidly with hemoglobin within the red cells; from tissue; host or cells: fresh whole blood (red blood cells) from normal volunteers
T2 sequence (P68871 2-147 limits assumed): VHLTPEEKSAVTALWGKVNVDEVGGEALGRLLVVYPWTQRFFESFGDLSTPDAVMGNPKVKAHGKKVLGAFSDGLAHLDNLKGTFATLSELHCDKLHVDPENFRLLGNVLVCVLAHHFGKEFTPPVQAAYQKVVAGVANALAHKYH
T2 sequence (P69905 2-142 limits assumed): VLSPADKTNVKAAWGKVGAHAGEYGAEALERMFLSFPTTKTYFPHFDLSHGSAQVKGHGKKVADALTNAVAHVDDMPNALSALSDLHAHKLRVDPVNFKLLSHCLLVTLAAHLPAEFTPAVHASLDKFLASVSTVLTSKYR
Procedure: The δ-Glu assay is a specific method for investigation of inhibitors of the early stage of glycation. Evaluation of early glycation products (Amadori) formation on hemoglobin (HbA1C) is performed by incubating red blood cells with an oxidized form of glucose in the presence and the absence of the inhibitor compound followed by determination of HbA1C in the test versus the control (Rahbar and Nadler., 1999). […] By contrast, glucose requires weeks for an equivalent reaction to occur. We have used this finding to devise an assay method to measure early stage glycation of hemoglobin (Amadori product) and an assay to evaluate the ability of an inhibitor to inhibit HbA1C formation. Briefly, fresh blood was drawn in potassium-EDTA and prepared for incubation within 30 minutes of collection by mixing 200 μL of blood with 40 μL of either phosphate buffered-saline (PBS), pH 7.4, alone, PBS containing 50 millimoles/L δ-Glu (Sigma), or PBS containing 50 millimoles/L δ-Glu plus 1 millimole/L inhibitor. After incubation for 16 hours at 37° C., the percentage of glycated hemoglobin present was determined. The percentage of glycated Hb (HbA1C) was determined using a dedicated ion-exchange HPLC system (BIORAD DIAMAT). Blood samples were analyzed in triplicate. The % inhibition of HbA1C formation by the compound was calculated according to the following formula: […]
where A is HbA1C concentration in the baseline control tube not treated with δ-Glu, B is the HbA1C concentration in blood incubated with δ-Glu, C is the HbA1C content of the test tube treated both with δ-Glu and the inhibitor compound.
The amount of (HbA1C) formation using δ-Glu treated whole blood from normal volunteers using 1 millimole/L of the compounds is shown in FIG. 1. Levels of HbA1C in the δ-Glu treated blood is twice as high as the baseline control. Various inhibitors (compounds LR93-LR102) show different levels of HbA1C depending on their inhibitory potencies.

[2] = molecular target: T3, collagen-AGE-BSA crosslinking (Bos taurus, UniProt P02769); assay: ELISA assay, crosslinking of AGE-BSA to rat tail-tendon-collagen coated plate; settings: for Inhibition of AGE-protein crosslinking (in words): ELISA, FIGS. 4A-C, 0.1-0.5 mM; for Effectiveness relative to pyridoxamine, inhibition of AGE-protein-crosslinking: compared with pyridoxamine (Khalifah et al., 1999)
T3 construct: purchased Becton Dickinson
T3 sequence (P02769 25-607): as the sequence (P02769 25-607) above
Procedure: A special ELISA technique (Al-abed et al., 1999) was used to evaluate the ability of the compounds being studied to inhibit the crosslinking of glycated-BSA (AGE-BSA) to a rat tail-tendon-collagen coated 96 well plate (Biocoat Cell Environment, Becton Dickinson). Crosslinking of AGE-BSA to a rat tail-tendon-collagen coated plate was performed with and without the testing compound at the desired concentrations. The uncross-linked AGE-BSA was then removed by washing the wells. The AGE-BSA crosslinked to the tail-tendon-collagen coated plate was then quantified by a polyclonal antibody raised against AGE-RNase in our laboratory. Positive results in the assay indicate that the inhibitor is capable of reducing the amount of AGE-BSA which crosslinks with collagen. Aminoguanidine was used as positive control.

Structure (SMILES) | inhibition at 50000 µM (BSA; aminoguanidine 50 mM, read-out: Percent Inhibition in the BSA-Glucose Assay (positive control)) [%] | Percent Inhibition of HbA1c formation in the δ-Glu Assay [1] [%] | Percent Inhibition in the BSA-Glucose Assay (BSA) [%] | Effectiveness relative to pyridoxamine, inhibition of AGE-protein-crosslinking [2] [times] | Percent Inhibition in the G.K.-Ribose Assay (positive control) (G.K. peptide; aminoguanidine 50 mM) [%] | Percent Inhibition in the G.K.-Ribose Assay (G.K. peptide) [%] | Inhibition of AGE-protein crosslinking (in words) [2]
CC(C)(Oc1ccc(Cl)cc1)C(=O)NC1(C(=O)O)CCCCC1 [LR93] | – | 49.2 | 35 | – | – | 42.8 | –
CC(C)(Oc1ccc(NC(=O)Nc2cc(Cl)cc(Cl)c2)cc1)C(=O)N1CCCCC1C(=O)O (stereo not shown) [LR94] | – | 28.5 | 26.8 | – | – | 33.7 | –
CC(C)C[C@H](NC(=O)C(C)(C)Oc1ccc(NC(=O)Nc2cc(Cl)cc(Cl)c2)cc1)C(=O)O [LR95] | – | 61.9 | 34 | – | – | 29.5 | –
COC(=O)CC[C@H](NC(=O)C(C)(C)Oc1ccc(NC(=O)Nc2cc(Cl)cc(Cl)c2)cc1)C(=O)O [LR96] | – | 57.1 | 30 | 2 to 3 | – | 42.4 | strong inhibitors of AGE-protein crosslinking
CC(C)(Oc1ccc(NC(=O)Nc2cc(Cl)cc(Cl)c2)cc1)C(=O)NCCCC(=O)O [LR97] | – | 36.5 | 26.2 | – | – | 33.3 | –
CC(C)(Oc1ccc(NC(=O)Nc2cc(Cl)cc(Cl)c2)cc1)C(=O)NC1(C(=O)O)CCCC1 [LR100] | – | 52.4 | 31.9 | – | – | 28.5 | –

More lines, main results first:

inhibition at 50000 µM (BSA; aminoguanidine 50 mM, read-out: Percent Inhibition in the BSA-Glucose Assay (positive control)) [%] | Percent Inhibition of HbA1c formation in the δ-Glu Assay [1] [%] | Percent Inhibition in the BSA-Glucose Assay (BSA) [%] | Effectiveness relative to pyridoxamine, inhibition of AGE-protein-crosslinking [2] [times] | Structure (SMILES) | Percent Inhibition in the G.K.-Ribose Assay (positive control) (G.K. peptide; aminoguanidine 50 mM) [%] | Percent Inhibition in the G.K.-Ribose Assay (G.K. peptide) [%] | Inhibition of AGE-protein crosslinking (in words) [2]
74 | 12.1 | – | – | N=C(N)NN [AG, aminoguanidine, reference compound] | 67 | – | –
– | 42.8 | 26.7 | – | CC(C)(Oc1ccc(NC(=O)Nc2cc(Cl)cc(Cl)c2)cc1)C(=O)NCC(=O)O [LR98] | – | 37.3 | –
– | 53.9 | 30.9 | 2 to 3 | CC(C)(Oc1ccc(NC(=O)Nc2cc(Cl)cc(Cl)c2)cc1)C(=O)Nc1ccc(C(=O)O)cc1 [LR99] | – | 39.5 | strong inhibitors of AGE-protein crosslinking
